# Patent US6565830B1, “DTPA monoamides, pharmaceutical agents containing these compounds, their use and process for their production” (Schering Aktiengesellschaft, priority 1990, dated 2003)
# Assays:
# [1] = cited from earlier work
# [2] = target: human serum albumin (Homo sapiens, UniProt P02768); experiment: Association with human serum albumin in aqueous solution; format: binding
# [3] = tested on: liver; experiment: In vivo NMR diagnosis (MRI) after oral administration, rat; details: p.o. 0.5 mmol of Gd/kg
# Excerpt: This finding agrees very well with the pharmacokinetic data.
# [4] = tested on: Brown-Pearce tumor; experiment: In vivo NMR diagnosis (MRI) after intravenous administration, rat with Brown-Pearce tumor in the liver; details: i.v. 0.1 mmol of Gd/kg
# Description: A cell suspension of the Brown-Pearce tumor was injected in the liver in a test animal (rat, strain lew/mol, female, 155 g) two weeks before the test. In the method used, about 2 weeks were required until the tumor had reached the size of 0.5-1 cm^3 desired for the test.
# For the test, the animal was anesthetized (Rompun+Ketavet) and then a catheter was placed in the caudal vein for the administration of the contrast medium.
# The imaging took place in an MRI experimental device of the General Electric company (field strength 2 teslas). The first image was made without contrast media with a T1-weighted spin echo sequence (TR=400 msec, TE=20 msec, layer thickness 3 mm).
# human serum albumin, sequence (P02768 25-609): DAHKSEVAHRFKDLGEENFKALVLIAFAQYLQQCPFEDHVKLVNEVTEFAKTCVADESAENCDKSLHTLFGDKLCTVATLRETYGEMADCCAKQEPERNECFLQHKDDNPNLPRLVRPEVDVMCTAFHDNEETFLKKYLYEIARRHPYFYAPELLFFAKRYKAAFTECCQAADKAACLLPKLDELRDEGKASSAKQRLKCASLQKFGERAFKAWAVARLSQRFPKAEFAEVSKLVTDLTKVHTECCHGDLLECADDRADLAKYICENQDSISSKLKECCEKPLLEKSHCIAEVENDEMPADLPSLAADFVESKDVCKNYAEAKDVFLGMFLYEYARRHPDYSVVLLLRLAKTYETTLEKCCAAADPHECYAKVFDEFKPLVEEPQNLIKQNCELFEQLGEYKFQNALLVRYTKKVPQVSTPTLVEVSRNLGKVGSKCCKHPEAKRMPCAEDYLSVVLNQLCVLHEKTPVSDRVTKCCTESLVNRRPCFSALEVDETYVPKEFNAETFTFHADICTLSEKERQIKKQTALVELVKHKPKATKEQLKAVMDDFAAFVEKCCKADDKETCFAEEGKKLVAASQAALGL
compound,measurement,setting,value
"CNC[C@H](O)[C@@H](O)[C@H](O)[C@H](O)CO.CNC[C@H](O)[C@@H](O)[C@H](O)[C@H](O)CO.O=C([O-])CN(CCN(CC(=O)[O-])CC(=O)O)CCN(CC(=O)[O-])CC(=O)O.[Gd+3] [Magnevist, gadolinium(III) complex of diethylenetriaminepentaacetic acid]",distribution after intravenous injection,[1],spreads extracellularly
same,route of elimination after intravenous injection,[1],eliminated by glomerular secretion through the kidneys
"CCCCCCC(CCCCCCCCCCC(=O)O)NC(=O)CN(CCN(CCN(CC(=O)O)CC(=O)O)CC(=O)O)CC(=O)O.[Gd] (centres unmarked) [Example 4b, Gadolinium complex of 3,6-bis(carboxymethyl)-9-(11-carboxy-1-n-hexyl-undecylcarbamoylmethyl)-3,6,9-triazaundecanedioic acid]",association with human serum albumin,[2],forms associates
"O=C(O)CCCCCCCCCCNC(=O)CN(CCN(CCN(CC(=O)O)CC(=O)O)CC(=O)O)CC(=O)O.[Gd] [Example 1b, Gadolinium complex of 3,6-bis(carboxymethyl)-9-(10-carboxydecylcarbamoylmethyl)-3,6,9-triazaundecanedioic acid]",resorption after oral administration,[3],resorbed in the small intestine after oral administration and is immediately taken up again for the most part by the liver
same,signal in the liver in MRI image,[3]; 45 minutes after administration (image 3),slight increase in the signal in the liver
same,enhancement in the liver in MRI image,[3]; 180 minutes after administration (image 4),marked enhancement
same,secretion in the stomach,[4],secreted in the stomach
same,distribution of contrast medium between liver and tumor,[4]; 60 minutes,"concentrated in the liver to a great extent, but, not in the tumor"
same,enhancement of the stomach in MRI image,[4]; 60 minutes (image no. 2),very strong enhancement
same,appearance of liver tumor in MRI image,[4]; 60 minutes after administration,considerably darker in comparison with the surrounding liver tissue
same,signal intensity of liver parenchyma in MRI image,"[4]; 60 minutes after administration, T1-weighted spin echo, 2 teslas",very bright
